What all share (test): NCI-60 cell line screen, 48 h
The test system of experiment [1] is CCRF-CEM leukemia.
Experiment [2] has as its system HCT-116 colon.
In experiment [3] the test system is MALME-3M melanoma.
Experiment [4] concerns SK-MEL-5 melanoma.
Experiment [5] deals with SF-539 CNS.
Experiment [6] relates to COLO 205 colon.
Experiment [7] relates to NCI-H226 lung.
In experiment [8] the test system is SR leukemia.
Experiment [9] relates to NCI-H522 lung.
The test system of experiment [10] is HT29 colon.

SMILES strings stand for the structures.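 Values below derive from 48-hour exposures of cells grown in 96-well plates, with endpoints linearly interpolated between the two concentrations bracketing the appropriate inhibition level. GI50 is the concentration that inhibits growth by half. At the TGI there is no net growth.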 A value given as a limit tells only on which side of the number the result lay.

In the case of `Cc1ccnc(NC(c2ccccc2)c2ccc3cccnc3c2O)c1` (stereo not drawn), the GI50 was 2.43 µM in experiment [1]; 2.94 µM in [2]; 2.89 µM in [3]; 4.31 µM in experiment [4]; 3.35 µM in [5]; 14.3 µM in experiment [6]. The GI50 in experiment [7] is 4.48 µM; in [8], 2.7 µM. Besides, the TGI in [1] is greater than 100 µM; in [2] it was 14.5 µM; in experiment [3], 34.9 µM; in [4], 15.6 µM; in [5], 19.2 µM; in experiment [6], 73.4 µM. Besides, the TGI is 44.6 µM in [7] and greater than 100 µM in experiment [8].
For `CCOC(=O)CP(=S)(S)c1ccccc1` (stereo not drawn), the TGI in [1], in experiment [3], in experiment [9], in experiment [4], in [5] and in [6] was greater than 100 µM in each case. In addition, the TGI in [7], in [8] and in [10] was greater than 100 µM throughout.
Take `COc1ccc2c(c1)CC1N(C)CCC13CCCCC23` (stereo not drawn): the TGI in experiment [1], in [2], in experiment [3], in experiment [9], in experiment [4] and in experiment [6] was greater than 100 µM each time. Moreover, the TGI in experiment [7], in experiment [8] and in [10] was greater than 100 µM each time.
In the case of `COC(=O)[C@H](C)[C@@H]1CC[C@](C)(CCC2=C(C)CCCC2(C)C)OO1`, the TGI in experiment [1], in experiment [2], in [3], in [9], in [4] and in experiment [5] was greater than 25 µM each time. The TGI in [6], in [8] and in [10] was greater than 25 µM each time.
For the compound `Cc1cc2c(C)nn(Cc3ccccc3Cl)c2c(C#N)c1C`, the TGI in experiment [1], in experiment [2], in [3], in experiment [5], in experiment [6] and in experiment [7] was greater than 100 µM each time. The TGI in experiment [8] and in experiment [10] was greater than 100 µM throughout.
With `O=C1c2ccccc2-c2ccccc2C1(Cl)Cl`, the GI50 in experiment [1] was 1.65 µM; in [2], 0.3 µM; in experiment [3] it was 0.98 µM; in [4], 1.32 µM; in experiment [5], 1.71 µM; in experiment [6], 1.81 µM. In addition, the GI50 was 1.79 µM in experiment [7], 2.71 µM in experiment [8] and 2.52 µM in experiment [10]. The TGI in [1] is 7.03 µM; in experiment [2] it was 1.09 µM; in experiment [3], 2.3 µM; in experiment [4], 2.63 µM; in experiment [5] it was 3.23 µM; in [6], 3.47 µM. Moreover, the TGI in experiment [7] stood at 3.49 µM; in experiment [8], 8.71 µM; in experiment [10], 7.57 µM.
Take `CCCCCCn1c2c(c3c(O)cccc31)C(=O)c1ccccc1-2`: the GI50 in experiment [1] was 23.2 µM; in experiment [2], 17.2 µM; in [9], 17.2 µM; in experiment [4], 19.4 µM; in [5], 18 µM; in experiment [6], 38.8 µM. Further, the GI50 in experiment [7] was 21.6 µM; in experiment [8], 26 µM; in [10] it was 35.6 µM. Further, the TGI in [1] was 50 µM; in experiment [2], 30.9 µM; in experiment [9], 35.9 µM; in experiment [4] it was 34.6 µM; in experiment [5], 35.7 µM; in experiment [6], greater than 100 µM. In addition, the values for the TGI in [7], in experiment [8] and in [10] were 39.7 µM, greater than 100 µM and greater than 100 µM, respectively.
On to `CCOC(=O)Cn1c(=O)[nH]c(=O)c2[nH]cnc21`, for which the TGI in experiment [1], in experiment [2], in experiment [3], in [9], in experiment [4] and in experiment [5] was greater than 100 µM each time. The TGI in experiment [6], in experiment [8] and in experiment [10] was greater than 100 µM each time.
As for `O=C(O)C1C2CCC(O2)C1C(=O)NCc1cccnc1` (stereo not drawn), the TGI in [1], in experiment [2], in experiment [3], in [9], in [4] and in experiment [5] was greater than 100 µM in each case. The TGI in experiment [6], in experiment [8] and in experiment [10] was greater than 100 µM throughout.
For `COc1ccc(NC(=O)C2=CC(=O)c3ccc(O)cc3C2=O)c(OC)c1`, the TGI in [1], in experiment [2], in experiment [3], in [4], in [5] and in experiment [6] was greater than 100 µM in each case. Moreover, the TGI in experiment [7], in experiment [8] and in [10] was greater than 100 µM throughout.
For `O=C(O)CCCc1cc2c(s1)-c1cccc3cccc-2c13`, the TGI in experiment [2] was greater than 100 µM; in experiment [3], greater than 100 µM; in experiment [9] it was 51.1 µM; in experiment [5] it was greater than 100 µM; in experiment [6] it was 42.3 µM; in [7] it was greater than 100 µM. For the same compound, the figures for the TGI in experiment [8] and in experiment [10] were 56.9 µM and greater than 100 µM, respectively.
Take `C1C[S][Ge]2([S]CCS1)[S]CCSCC[S]2`: the GI50 in [1], in experiment [2], in experiment [3], in [9], in experiment [5] and in experiment [6] was greater than 100 µM throughout. In addition, the GI50 in [7] and in experiment [8] was greater than 100 µM in each case. Also, the TGI in experiment [1], in experiment [2], in experiment [3], in experiment [9], in [5] and in experiment [6] was greater than 100 µM each time. Also, the TGI in [7] and in [8] was greater than 100 µM throughout.

These data come from PubChem BioAssay (NCI).
